Experiments:
Type in all cases: cell-based
[1] = molecular target: T1, L-type calcium channel (LTCC) (Rattus norvegicus, UniProt P22002); assay: whole-cell patch clamp of ICa,L in A7r5 cells (stimulation); settings: read-out: % stimulation above basal at 10 nM
T1 construct: gene Cacna1c; native channel in A7r5 cells

[2] = molecular target: T1, L-type calcium channel (LTCC); assay: whole-cell patch clamp of ICa,L in A7r5 cells; settings: read-out: % of basal current at 1 μM
[3] = molecular target: T1, L-type calcium channel (LTCC); assay: whole-cell patch clamp of basal and BAY-stimulated ICa,L in A7r5 cells

T1 sequence (P22002 whole entry): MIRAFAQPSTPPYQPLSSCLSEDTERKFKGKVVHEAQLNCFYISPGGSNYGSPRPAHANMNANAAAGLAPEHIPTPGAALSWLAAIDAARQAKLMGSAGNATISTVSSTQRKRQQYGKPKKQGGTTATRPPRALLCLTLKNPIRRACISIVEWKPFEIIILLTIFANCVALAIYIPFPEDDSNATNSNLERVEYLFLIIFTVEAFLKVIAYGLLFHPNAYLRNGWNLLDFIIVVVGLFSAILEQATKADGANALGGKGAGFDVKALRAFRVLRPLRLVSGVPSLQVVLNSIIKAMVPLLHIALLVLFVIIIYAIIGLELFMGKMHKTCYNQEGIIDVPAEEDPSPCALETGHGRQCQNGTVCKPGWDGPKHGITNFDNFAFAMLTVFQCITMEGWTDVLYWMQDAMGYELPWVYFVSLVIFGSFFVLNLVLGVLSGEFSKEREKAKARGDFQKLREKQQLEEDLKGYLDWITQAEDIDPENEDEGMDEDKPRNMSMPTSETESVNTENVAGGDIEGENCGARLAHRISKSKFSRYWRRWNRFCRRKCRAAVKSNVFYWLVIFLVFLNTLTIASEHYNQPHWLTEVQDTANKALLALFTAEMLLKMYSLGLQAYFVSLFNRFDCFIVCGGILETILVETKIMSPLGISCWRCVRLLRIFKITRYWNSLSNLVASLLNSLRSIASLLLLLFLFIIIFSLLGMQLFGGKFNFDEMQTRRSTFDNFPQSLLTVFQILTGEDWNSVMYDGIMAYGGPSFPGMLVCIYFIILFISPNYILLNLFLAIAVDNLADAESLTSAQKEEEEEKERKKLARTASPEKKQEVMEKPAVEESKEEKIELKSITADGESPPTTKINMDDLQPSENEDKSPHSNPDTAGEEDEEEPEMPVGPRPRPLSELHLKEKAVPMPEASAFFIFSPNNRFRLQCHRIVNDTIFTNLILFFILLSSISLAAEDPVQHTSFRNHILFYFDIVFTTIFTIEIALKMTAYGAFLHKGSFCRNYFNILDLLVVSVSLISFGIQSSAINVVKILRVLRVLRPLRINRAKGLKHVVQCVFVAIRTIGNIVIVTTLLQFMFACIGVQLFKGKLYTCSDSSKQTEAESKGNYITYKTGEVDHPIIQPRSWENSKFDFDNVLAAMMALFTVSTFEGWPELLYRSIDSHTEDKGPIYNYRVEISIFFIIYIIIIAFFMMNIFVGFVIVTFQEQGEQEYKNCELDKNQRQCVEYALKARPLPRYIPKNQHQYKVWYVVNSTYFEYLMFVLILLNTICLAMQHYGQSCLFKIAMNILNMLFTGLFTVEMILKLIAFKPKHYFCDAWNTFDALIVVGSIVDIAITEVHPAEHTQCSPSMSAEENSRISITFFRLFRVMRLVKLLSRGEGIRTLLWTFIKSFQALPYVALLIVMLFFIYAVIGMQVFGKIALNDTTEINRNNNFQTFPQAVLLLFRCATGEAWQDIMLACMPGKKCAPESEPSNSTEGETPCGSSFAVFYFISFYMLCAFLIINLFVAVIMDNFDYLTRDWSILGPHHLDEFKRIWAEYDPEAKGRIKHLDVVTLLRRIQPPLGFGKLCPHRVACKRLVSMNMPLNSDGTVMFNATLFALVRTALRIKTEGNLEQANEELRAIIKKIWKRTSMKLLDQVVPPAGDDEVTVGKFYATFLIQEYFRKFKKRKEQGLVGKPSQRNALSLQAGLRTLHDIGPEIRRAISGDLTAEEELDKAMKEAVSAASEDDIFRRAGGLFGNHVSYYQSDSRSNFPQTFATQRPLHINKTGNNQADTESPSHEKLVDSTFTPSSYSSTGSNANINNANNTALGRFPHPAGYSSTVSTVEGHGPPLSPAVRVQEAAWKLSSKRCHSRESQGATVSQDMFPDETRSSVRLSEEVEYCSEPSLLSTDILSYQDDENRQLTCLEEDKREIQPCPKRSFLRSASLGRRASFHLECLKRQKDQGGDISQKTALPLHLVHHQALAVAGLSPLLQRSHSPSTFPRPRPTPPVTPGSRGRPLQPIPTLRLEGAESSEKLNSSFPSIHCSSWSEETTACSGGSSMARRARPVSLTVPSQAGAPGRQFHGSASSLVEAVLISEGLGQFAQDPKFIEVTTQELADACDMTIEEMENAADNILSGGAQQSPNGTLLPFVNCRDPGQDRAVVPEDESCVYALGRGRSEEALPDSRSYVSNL

Which activation at 0.01 µM [1] does the source give for `COC(=O)C1=C(C)NC(C)=C([N+](=O)[O-])[C@H]1c1ccccc1C(F)(F)F` [BAY, (−)-Bay K8644] here?
Its activation at 0.01 µM is 74.8 ± 5.7%.

`COC(=O)C1=C(C)NC(C)=C(C(=O)OC)C1c1ccccc1[N+](=O)[O-]` [NIF, nifedipine] was tested. Which activity at 1 µM [2] did it give?
The activity at 1 µM was 20.6 ± 2.2%.

For `CC(C)CCC[C@@H](C)[C@H]1CC[C@H]2[C@@H]3CC=C4C[C@@H](O)CC[C@]4(C)[C@H]3CC[C@]12C` [cholesterol], which inhibition at 100 µM [3] is on record?
The inhibition at 100 µM was 73.9 ± 16.8%.
